“Also recorded” adds a separate entry of the source.
Experiments:
HEP-G2 cells = assay: SRB cytotoxicity assay, HEP-G2; type: cell-based; conditions: Homo sapiens, HepG2, Liver
Method: (§1) In vitro cytotoxic activities of different compounds were assessed by using standard SRB assay in different cells. The absorbance of the treated and untreated cells was measured on a multi-well scanning spectrophotometer (Epoch Microplate Reader, Biotek, USA) at a wavelength of 510 nm. Percent growth inhibition was calculated by using the formula […].
(§2) SMAC mimetics promotes tumor cell selective cytotoxic effects. SW 620, HT 29, HCT 116 and VERO cells were treated with series of Smac mimetics at 10 μM dose for 48 hours and cytotoxicity was measured by SRB assay. As C6 had shown robust in-vitro cytotoxic effect against tumor cells but not to VERO cells, we determined IC50 value of C6 against different types of cancer cell lines. ICso values are represented in Table 2.

K562 cells = assay: SRB cytotoxicity assay, K562; type: cell-based; conditions: Homo sapiens, Leukemia
Method: as §1, §2

in vivo = conditions: mouse
Method: SIF, SGF and other stability studies were performed by following standard protocol. […] Mice were administered their respective doses according to body weight by intravenous (lateral vein), Subcutaneous route and Oral respectively. Blood samples were collected at 0.083, 0.25, 0.5, 0.75, 1, 2, 4, 8, 12, 24 and 48 hours. Plasma was separated and processed for analysis. For pharmacokinetic analysis, plasma concentration versus time data were plotted and analyzed by non-compartmental analysis method using WinNonlin (Pharsight, Mountain View, CA) software.

XIAP BIR3 protein = XIAP BIR3 protein (Homo sapiens, UniProt P98170); assay: Fluorescence polarization competition binding assay, XIAP BIR3; conditions: displacement of AVPIAQK(FAM)-OH, fluorescence polarization; read-out: Target Binding BIR3 Ki
XIAP BIR3 protein, sequence (P98170 241-356 limits assumed): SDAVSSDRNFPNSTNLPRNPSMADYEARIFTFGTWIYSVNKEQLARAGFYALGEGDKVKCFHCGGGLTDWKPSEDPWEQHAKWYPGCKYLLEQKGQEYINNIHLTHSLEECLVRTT
Method: (§3) The SMAC mimetics 1-9 were tested for their ability to displace the fluorescent labeled peptide AVPIAQK(FAM)-OH from XIAP BIR2 or XIAP BIR3 protein. The dose dependent binding experiment were then carried out by sequentially increasing the concentration of SMAC mimetic compounds at constant concentration of fluorescent labeled peptide and XIAP BIR2 or XIAP BIR3 protein. IC5- values were determined from the plot draw by prism software using nonlinear least-squares analysis. The Ki values of the SMAC mimetics were calculated which was based upon the measured IC50 values, the Kd value between tracer AVPIAQK(FAM)-OH and XIAP BIR2 or XIAP BIR3 complex, and the concentrations of the protein and tracer in the competition assay by using the web based program which are freely accessed at http://sw16.im.med.umich.edu/software/calc_ki/.In-silico.
(§4) Binding isotherms were plotted between FP reading versus log values of protein concentration in nM. The data was analysed using GraphPad prism and Kd values were determined using Boltzmann-sigmoidal non-linear regression curve fitting.

PANC-1 cells = assay: SRB cytotoxicity assay, PANC-1; type: cell-based; conditions: Homo sapiens, Pancreas
Method: as §1, §2

VERO cells = assay: SRB cytotoxicity assay, VERO; type: cell-based, monkey
Method: as §1

[1] = SRB cytotoxicity assay, VERO; type: cell-based, monkey; conditions: monkey, VERO cells; 10 μM, 48 hours, SRB assay; read-out: In vitro cytotoxicity at 10 μM dose, VERO (percent growth inhibition)
Method: as §1

HCT 116 cells = assay: SRB cytotoxicity assay, HCT 116; type: cell-based; conditions: Homo sapiens, HCT-116
Method: as §1

B-16 cells = assay: SRB cytotoxicity assay, B-16; type: cell-based; conditions: B16, Melanoma (Mouse)
Method: as §1, §2

[2] = test system: TRAIL mediated tumor cell cytotoxic response; assay: Combination cytotoxicity with DR5 ligand TRAIL; type: cell-based; conditions: in vitro, FIG. 4
cancer cell lines = assay: Cytotoxic potential against cancer cell lines (overall statement); type: cell-based; conditions: all cancer cells tested
Method: as §1, §2

MCF-7 cells = assay: SRB cytotoxicity assay, MCF-7; type: cell-based; conditions: Homo sapiens, MCF7, Breast
Method: as §1, §2

PARP, Caspase-3, cIAP-1 = assay: Apoptosis antibody array / apoptotic markers; type: cell-based; conditions: treated cells vs control, FIG. 2 right and FIG. 3
Method: Apoptosis array was performed by using Proteome Profiler Human Apoptosis Array Kit (ARY009) from R&D Systems following the manufacturer's instructions. The detailed assay procedure was followed. The images were captured by the gel documentation system (Bio-Rad chemidoc XRS plus), while ImageJ software (NIH) was used for analysis and quantification. Plotly software was used for heatmap generation (Montreal, Canada).

[3] = Organ distribution analysis; type: in vivo, mice; conditions: FIG. 9 right panel
[4] = Stability studies of C6 (SIF, SGF, plasma, microsomes); type: in vitro ADME
CT26 cells = assay: SRB cytotoxicity assay, CT26; type: cell-based; conditions: Colon (Mouse)
Method: as §1, §2

PC-3 cells = assay: SRB cytotoxicity assay, PC-3; type: cell-based; conditions: Homo sapiens, Prostrate
Method: as §1, §2

XIAP BIR2 protein = XIAP BIR2 protein (Homo sapiens, UniProt P98170); assay: Fluorescence polarization competition binding assay, XIAP BIR2; conditions: displacement of AVPIAQK(FAM)-OH, fluorescence polarization; read-out: Target Binding BIR2 Ki
XIAP BIR2 protein, sequence (P98170 124-240 limits assumed): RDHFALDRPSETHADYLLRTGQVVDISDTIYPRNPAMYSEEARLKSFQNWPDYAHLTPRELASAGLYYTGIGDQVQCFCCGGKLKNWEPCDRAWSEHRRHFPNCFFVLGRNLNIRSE
Method: as §3, §4

4T1 cells = assay: SRB cytotoxicity assay, 4T1; type: cell-based; conditions: Breast (Mouse)
Method: as §1, §2

HT29 cells = assay: SRB cytotoxicity assay, HT29; type: cell-based; conditions: Homo sapiens, HT-29
Method: as §1

A-549 cells = assay: SRB cytotoxicity assay, A-549; type: cell-based; conditions: Homo sapiens, A549, Lung
Method: as §1, §2

SW 620 cells = assay: SRB cytotoxicity assay, SW 620; type: cell-based; conditions: Homo sapiens, SW-620
Method: as §1

## CC[C@H](C)[C@H](NC(=O)[C@@H]1CC[C@H](c2ccc(C)o2)N1C(=O)[C@@H](NC(=O)[C@H](C)NC)C(C)C)C(=O)NC(c1ccccc1)c1ccccc1 [Compound 6, (2S,5R)-N-((2S,3S)-1-(benzhydrylamino)-3-methyl-1-oxopentan-2-yl)-1-((S)-3-methyl-2-((S)-2-(methylamino)propanamido)butanoyl)-5-(5-methylfuran-2-yl)pyrrolidine-2-carboxamide]
HEP-G2 cells
  IC50: 7.3 µM
K562 cells
  IC50: 9.1 µM
In vivo; iv, 4 mg/kg
  half-life: 0.19 ± 0.05 h
In vivo; po, 30 mg/kg
  half-life: 3.84 ± 1.8 h
In vivo; sc, 30 mg/kg
  half-life: 2.1 ± 0.15 h
XIAP BIR3 protein
  Ki: 0.58 µM
PANC-1 cells
  IC50: 5.83 µM
VERO cells; Primates, Kidney (monkey), VERO
  IC50: > 10 µM
VERO cells; non-human VERO cells
  Toxicity against VERO cells (in words): limited or minimal toxicity
[1]
  inhibition at 48 h, 10 μM: 18.4 ± 2.1%
HCT 116 cells; 10 μM, 48 hours, SRB assay, read-out: In vitro cytotoxicity at 10 μM dose, HCT 116 (percent growth inhibition)
  inhibition at 10 µM: 61.3 ± 2.9%
HCT 116 cells; Colon, HCT116
  IC50: 8.93 µM
B-16 cells
  IC50: 6.7 µM
[2]
  Sensitization of TRAIL mediated tumor cell cytotoxic response: robustly sensitizes
Cancer cell lines
  Cytotoxic activity against cancer cells (in words): potent cytotoxic activity
MCF-7 cells
  IC50: 5.02 µM
PARP, Caspase-3, cIAP-1
  Hallmark apoptotic features (PARP, Caspase-3, cIAP-1): cleavage of PARP and Caspase-3 and degradation of cIAP-1
[3]
  Presence in tumor tissues: presence of C6 in tumor tissues in significant quantity
[4]; HLM
  Stability in HLM: quite stable
[4]; MLM
  Stability in MLM: quite stable
[4]; SGF, listed as C6
  Stability in SGF: highly stable; also recorded: quite stable
[4]; SIF, listed as C6
  Stability in SIF: highly stable; also recorded: quite stable
[4]; microsome
  Stability in microsome: highly stable
[4]; plasma
  Stability in plasma: quite stable
CT26 cells
  IC50: > 10 µM
PC-3 cells
  IC50: 6.02 µM
XIAP BIR2 protein
  Ki: 3.21 µM
4T1 cells
  IC50: 4.17 µM
HT29 cells; 10 μM, 48 hours, SRB assay, read-out: In vitro cytotoxicity at 10 μM dose, HT29 (percent growth inhibition)
  inhibition at 10 µM: 65 ± 3.6%
HT29 cells; Colon, HT29
  IC50: 6.66 µM
A-549 cells
  IC50: > 10 µM
SW 620 cells; 10 μM, 48 hours, SRB assay, read-out: In vitro cytotoxicity at 10 μM dose, SW 620 (percent growth inhibition)
  inhibition at 10 µM: 59.27 ± 0.1%
SW 620 cells; Colon, SW620
  IC50: 4.31 µM
